In patent publication US12016864B2, “LOX enzyme inhibiting methods and compositions” (ANOVIA BIOSCIENCES, INC., priority 2021, dated 2024):
pIC50: −log10 of the molar value.

Target: T1, Recombinant human LOXL2 (lysyl oxidase like 2) (Homo sapiens, UniProt Q9Y4K0)
T1 construct: purchased R&D systems
T1 sequence (Q9Y4K0 26-774): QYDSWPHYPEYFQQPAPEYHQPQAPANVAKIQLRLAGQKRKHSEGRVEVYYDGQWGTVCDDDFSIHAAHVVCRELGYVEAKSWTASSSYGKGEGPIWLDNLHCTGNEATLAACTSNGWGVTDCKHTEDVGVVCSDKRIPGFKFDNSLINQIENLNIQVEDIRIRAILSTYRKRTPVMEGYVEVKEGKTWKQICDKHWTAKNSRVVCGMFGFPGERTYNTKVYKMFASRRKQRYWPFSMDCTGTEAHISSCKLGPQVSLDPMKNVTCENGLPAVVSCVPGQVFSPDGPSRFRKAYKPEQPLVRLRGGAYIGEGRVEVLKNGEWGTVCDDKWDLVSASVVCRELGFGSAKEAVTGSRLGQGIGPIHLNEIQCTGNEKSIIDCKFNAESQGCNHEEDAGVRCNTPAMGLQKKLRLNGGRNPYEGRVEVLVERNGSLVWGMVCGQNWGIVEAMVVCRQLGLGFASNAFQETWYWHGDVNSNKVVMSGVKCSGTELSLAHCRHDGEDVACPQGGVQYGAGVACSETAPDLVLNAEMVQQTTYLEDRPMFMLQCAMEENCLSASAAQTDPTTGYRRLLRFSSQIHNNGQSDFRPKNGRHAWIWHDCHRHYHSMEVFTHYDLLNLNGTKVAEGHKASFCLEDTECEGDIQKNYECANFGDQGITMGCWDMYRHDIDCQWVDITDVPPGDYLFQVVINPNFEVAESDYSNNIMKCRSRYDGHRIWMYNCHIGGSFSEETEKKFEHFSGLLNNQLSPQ
Assay: LOXL2 inhibition assay, fluorometric (cadaverine / HRP / Amplex Red)
Assay type: biochemical
Conditions: recombinant human LOXL2 130 nM; 30 min preincubation at 37° C.; 2.5 mM cadaverine; read-out: Activity Range LOXL2
Procedure: The ability of compounds to inhibit one or more of the lysyl oxidases LOXL2 and/or LOXL3 was determined using a fluorometric assay. This assay measures the activity of lysyl oxidases by coupling the reaction with horseradish peroxidase-catalyzed […]. The activity assay protocol uses cadaverine as substrate that releases hydrogen peroxide upon transformation by the specific LOX family enzyme present in the sample. Hydrogen peroxide is in turn detected using a red fluorescence substrate for HRP-coupled reactions (Amplex Red Enzyme Assays, Thermo Scientific Fisher). This leads to increase in fluorescence that can be easily detected at Ex/Em=540/590 nm in a fluorescence microplate reader.
Recombinant human LOXL2 (lysyl oxidase like 2) and recombinant human LOXL3 (lysyl oxidase like 3) were purchased from R&D systems and assays were performed in 1.2 M urea, 50 mM sodium borate buffer pH 8.0, and 10 mM CaCl.
5 μl of freshly prepared reaction buffer were delivered to reaction wells. Compounds were resuspended in 100% DMSO at 10 mM and delivered into buffer using acoustic technology (Echo550; nanoliter range). A 3× solution of LOXL2 or LOXL3 in reaction buffer was prepared (“enzyme solution”) and 5 μL of enzyme solution was added into the reaction wells. Buffer only was added to column 1 for no protein control. Reactions were incubated for 30 minutes at 37° C. A 3× mixture of cadaverine, Amplex Red, and HRP (“Substrate/Detection Mix) was prepared and subsequently 5 μL of the mixture added to each reaction well. Progress of reactions was monitored for 60 minutes at 37° C. using Clariostar plate reader (ex 530-12, ems 600-40). For all activity assays, pan-LOX inhibitor CCT365623 (Tang et al, 2017) and LOXL2/LOXL3 inhibitor PAT-1251 (PharmaKea) were included as standards.
For the data analysis, the slope of the linear portion of the progress curve was calculated using Clariostar software. Typical analysis interval was between 8-30 min, but varied between experiments. The background-subtracted signals (No protein wells are considered as background) were converted to % activity relative to DMSO controls. Data was analyzed using GraphPad Prism 4 with “sigmoidal dose-response (variable slope)”; 4 parameters with Hill Slope. Constraints: Bottom=Constant equal to 0. Top=Must be less than 120.

pIC50, ≥ 6.30:
NCc1ccnc(S(=O)(=O)C[C@@H]2C[C@H](C3CCCCC3)CN(S(=O)(=O)N3CCS(=O)(=O)CC3)C2)c1 (relative stereo) [Example 234, cis-4-((3-(((4-(Aminomethyl)pyridin-2-yl)sulfonyl)methyl)-5-cyclohexylpiperidin-1-yl)sulfonyl)thiomorpholine 1,1-dioxide 2,2,2-trifluoroacetate]
CS(=O)(=O)N1C[C@@H](c2ccccc2)C[C@@H]1CS(=O)(=O)c1ccc(CN)s1 (racemic) [Example 223T, trans-(5-(((1-(Methylsulfonyl)-4-phenylpyrrolidin-2-yl)methyl)sulfonyl)thiophen-2-yl)methanamine 2,2,2-trifluoroacetate]
NCc1ccnc(S(=O)(=O)C[C@@H]2C[C@H](C3CCCCC3)CN(S(=O)(=O)N3CCOCC3)C2)c1 (relative stereo) [Example 230, cis-(2-(((5-Cyclohexyl-1-(morpholinosulfony1)piperidin-3-yl)methyl)sulfonyl)pyridin-4-yl)methanamine 2,2,2-trifluoroacetate]
